Data reported in patent publication US20230085307A1, “PYRIDAZINONE COMPOUND AND HERBICIDE” (NISSAN CHEMICAL CORPORATION, priority 2019, published 2023).

Columns and labels:
late watergrass [1] = assay: Test Example 1: herbicidal activity, application before weed generation under submerged conditions (Table 16, symbol A); format: in vivo, late watergrass (Echinochloa oryzicola)
In short: (§1)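 Emulsion formulation, water-diluted to set dose, was put onto the flooded surface (4 cm depth, alluvial soil) the same day weeds were sown and 2.5-leaf rice transplanted. After 3 weeks at 25-30 °C under glass, each species was rated 0 (≤5% kill) to 5 (≥90% kill).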

Japanese bulrush [2] = assay: Test Example 1: herbicidal activity, application before weed generation under submerged conditions (Table 16, symbol B); format: in vivo, Japanese bulrush (Schoenoplectus juncoides)
In short: as §1

oval-leafed pondweed [3] = assay: Test Example 1: herbicidal activity, application before weed generation under submerged conditions (Table 16, symbol C); format: in vivo, oval-leafed pondweed (Monochoria vaginalis)
In short: as §1

late watergrass [4] = assay: Test Example 2: herbicidal activity, application during weed generation under submerged conditions (Table 17, symbol A); format: in vivo, late watergrass (Echinochloa oryzicola); details: for herbicidal effect grade, A: late watergrass: application during weed generation under submerged conditions
In short: (§2)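 Mixed weed seedlings in alluvial soil under a 4 cm water layer, greenhouse-grown at 25–30° C. Compound given as a diluted emulsion into the floodwater at the 1–2 leaf stage; response graded after three weeks.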

Japanese bulrush [5] = assay: Test Example 2: herbicidal activity, application during weed generation under submerged conditions (Table 17, symbol B); format: in vivo, Japanese bulrush (Schoenoplectus juncoides); details: for herbicidal effect grade, B: Japanese bulrush: application during weed generation under submerged conditions
In short: as §2

oval-leafed pondweed [6] = assay: Test Example 2: herbicidal activity, application during weed generation under submerged conditions (Table 17, symbol C); format: in vivo, oval-leafed pondweed (Monochoria vaginalis); details: for herbicidal effect grade, C: oval-leafed pondweed: application during weed generation under submerged conditions
In short: as §2

barnyard grass [7] = assay: Test Example 3: herbicidal effect by foliage application, Wagner pot (Table 18, symbol H); format: in vivo, barnyard grass (Echinochloa crus-galli)
In short: (§3)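 Plants were sown in alluvial soil held under 0.1–0.5 cm standing water and grown 14 days in a greenhouse at 25–30 °C. An emulsifiable formulation, water-diluted to the set dose, was then sprayed onto the foliage, and effects were scored three weeks later using previously defined criteria.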

Chinese sprangletop = assay: Test Example 3: herbicidal effect by foliage application, Wagner pot (Table 18, symbol D); format: in vivo, chinese sprangletop (Leptochloa chinensis)
In short: as §3

rice flat sedge = assay: Test Example 3: herbicidal effect by foliage application, Wagner pot (Table 18, symbol E); format: in vivo, rice flat sedge (Cyperus iria)
In short: as §3

southern crabgrass = assay: Test Example 5: herbicidal effect by foliage application, plastic box (Table 20, symbol F); format: in vivo, southern crabgrass (Digitaria ciliaris); details: foliage application, 320 g/ha, three weeks after application
In short: (§4)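 Plants sown in sterilized diluvial soil and grown 14 days in a greenhouse at 25° C to 30° C, then sprayed on the foliage with the compound's emulsion diluted in water to a predetermined herbicide amount. Injury to weeds and crops scored three weeks after application on a visual rating scale.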

green foxtail = assay: Test Example 5: herbicidal effect by foliage application, plastic box (Table 20, symbol G); format: in vivo, green foxtail (Setaria viridis); details: foliage application, 320 g/ha, three weeks after application
In short: as §4

barnyard grass [8] = assay: Test Example 5: herbicidal effect by foliage application, plastic box (Table 20, symbol H); format: in vivo, barnyard grass (Echinochloa crus-galli); details: foliage application, 320 g/ha, three weeks after application
In short: as §4

velvetleaf = assay: Test Example 5: herbicidal effect by foliage application, plastic box (Table 20, symbol M); format: in vivo, velvetleaf (Abutilon theophrasti); details: foliage application, 320 g/ha, three weeks after application
In short: as §4

lambsquarters = assay: Test Example 5: herbicidal effect by foliage application, plastic box (Table 20, symbol O); format: in vivo, lambsquarters (Chenopodium album); details: foliage application, 320 g/ha, three weeks after application
In short: as §4

[9] = amount of applied herbicide 320 g/ha
[10] = AAH 320 g/ha, application during weed generation, submerged conditions
[11] = amount of applied herbicide 438 g/ha

Cc1nn(C)c(=O)c(-c2c(-c3ccc(OC(F)(F)F)cc3)sc3cc(Cl)c(Cl)cc23)c1O [5-107]
Herbicidal effect, A: late watergrass (late watergrass [1]; [9]): 3 (Herbicidal rate of 40% or more and less than 70%)
Herbicidal effect, B: Japanese bulrush (Japanese bulrush [2]; [9]): 0 (Herbicidal rate of 5% or less (almost no effect))
Herbicidal effect, C: oval-leafed pondweed (oval-leafed pondweed [3]; [9]): 0 (Herbicidal rate of 5% or less (almost no effect))
herbicidal effect rating, A: late watergrass (late watergrass [4]; [10]): 3 (Herbicidal rate of 40% or more and less than 70%)
herbicidal effect rating, B: Japanese bulrush (Japanese bulrush [5]; [10]): 3 (Herbicidal rate of 40% or more and less than 70%)
herbicidal effect rating, C: oval-leafed pondweed (oval-leafed pondweed [6]; [10]): 3 (Herbicidal rate of 40% or more and less than 70%)
herbicidal effect on barnyard grass (H) (barnyard grass [7]; 320 g/ha): 3 (Herbicidal rate of 40% or more and less than 70%)
herbicidal effect on Chinese sprangletop (D) (Chinese sprangletop; 320 g/ha): 0 (Herbicidal rate of 5% or less (almost no effect))
herbicidal effect on rice flat sedge (E) (rice flat sedge; 320 g/ha): 0 (Herbicidal rate of 5% or less (almost no effect))
herbicidal effect on southern crabgrass (F) (southern crabgrass): 2 (Herbicidal rate of 20% or more and less than 40%)
herbicidal effect on green foxtail (G) (green foxtail): 2 (Herbicidal rate of 20% or more and less than 40%)
herbicidal effect on barnyard grass (H) (barnyard grass [8]): 3 (Herbicidal rate of 40% or more and less than 70%)
herbicidal effect on velvetleaf (M) (velvetleaf): 3 (Herbicidal rate of 40% or more and less than 70%)
herbicidal effect on lambsquarters (O) (lambsquarters): 4 (Herbicidal rate of 70% or more and less than 90%)

CCCOc1ccc(-c2oc3ccc(C)cc3c2-c2c(OC(=O)CCC)c(C)nn(C)c2=O)cc1 [9-050]
Herbicidal effect, A: late watergrass (late watergrass [1]; [9]): 5 (Herbicidal rate of 90% or more (almost completely withered))
Herbicidal effect, B: Japanese bulrush (Japanese bulrush [2]; [9]): 5 (Herbicidal rate of 90% or more (almost completely withered))
Herbicidal effect, C: oval-leafed pondweed (oval-leafed pondweed [3]; [9]): 5 (Herbicidal rate of 90% or more (almost completely withered))
herbicidal effect grade, A: late watergrass (late watergrass [4]; [9]): 3 (Herbicidal rate of 40% or more and less than 70%)
herbicidal effect grade, B: Japanese bulrush (Japanese bulrush [5]; [9]): 3 (Herbicidal rate of 40% or more and less than 70%)
herbicidal effect grade, C: oval-leafed pondweed (oval-leafed pondweed [6]; [9]): 5 (Herbicidal rate of 90% or more (almost completely withered))
Herbicidal effect on H (barnyard grass), foliage application (barnyard grass [7]; [9]): 4 (Herbicidal rate of 70% or more and less than 90%)
Herbicidal effect on D (Chinese sprangletop), foliage application (Chinese sprangletop; [9]): 3 (Herbicidal rate of 40% or more and less than 70%)
Herbicidal effect on E (rice flat sedge), foliage application (rice flat sedge; [9]): 5 (Herbicidal rate of 90% or more (almost completely withered))

CCCC(=O)Oc1c(C)nn(C)c(=O)c1-c1c(-c2ccc(OCC(C)C)cc2)oc2ccc(C)cc12 [9-052]
Herbicidal effect, A: late watergrass (late watergrass [1]; [9]): 5 (Herbicidal rate of 90% or more (almost completely withered))
Herbicidal effect, B: Japanese bulrush (Japanese bulrush [2]; [9]): 5 (Herbicidal rate of 90% or more (almost completely withered))
Herbicidal effect, C: oval-leafed pondweed (oval-leafed pondweed [3]; [9]): 4 (Herbicidal rate of 70% or more and less than 90%)
herbicidal effect grade, A: late watergrass (late watergrass [4]; [9]): 3 (Herbicidal rate of 40% or more and less than 70%)
herbicidal effect grade, B: Japanese bulrush (Japanese bulrush [5]; [9]): 3 (Herbicidal rate of 40% or more and less than 70%)
herbicidal effect grade, C: oval-leafed pondweed (oval-leafed pondweed [6]; [9]): 4 (Herbicidal rate of 70% or more and less than 90%)
Herbicidal effect on H (barnyard grass), foliage application (barnyard grass [7]; [9]): 5 (Herbicidal rate of 90% or more (almost completely withered))
Herbicidal effect on D (Chinese sprangletop), foliage application (Chinese sprangletop; [9]): 0 (Herbicidal rate of 5% or less (almost no effect))
Herbicidal effect on E (rice flat sedge), foliage application (rice flat sedge; [9]): 4 (Herbicidal rate of 70% or more and less than 90%)

CCCC(=O)Oc1c(C)nn(C)c(=O)c1-c1c(-c2ccc(SC)cc2)oc2ccc(C)cc12 [9-056]
Herbicidal effect, A: late watergrass (late watergrass [1]; [11]): 5 (Herbicidal rate of 90% or more (almost completely withered))
Herbicidal effect, B: Japanese bulrush (Japanese bulrush [2]; [11]): 4 (Herbicidal rate of 70% or more and less than 90%)
Herbicidal effect, C: oval-leafed pondweed (oval-leafed pondweed [3]; [11]): 4 (Herbicidal rate of 70% or more and less than 90%)
herbicidal effect grade, A: late watergrass (late watergrass [4]; [11]): 3 (Herbicidal rate of 40% or more and less than 70%)
herbicidal effect grade, B: Japanese bulrush (Japanese bulrush [5]; [11]): 3 (Herbicidal rate of 40% or more and less than 70%)
herbicidal effect grade, C: oval-leafed pondweed (oval-leafed pondweed [6]; [11]): 4 (Herbicidal rate of 70% or more and less than 90%)
Herbicidal effect on H (barnyard grass), foliage application (barnyard grass [7]; [11]): 5 (Herbicidal rate of 90% or more (almost completely withered))
Herbicidal effect on D (Chinese sprangletop), foliage application (Chinese sprangletop; [11]): 3 (Herbicidal rate of 40% or more and less than 70%)
Herbicidal effect on E (rice flat sedge), foliage application (rice flat sedge; [11]): 4 (Herbicidal rate of 70% or more and less than 90%)
